Assay results taken from patent US20260125400A1, “TYK2 DEGRADERS AND USES THEREOF” (Kymera Therapeutics, Inc., priority 2023, published 2026).

Biological target: T1, TYK2 (Homo sapiens, UniProt P29597)
T1 construct: Degradation of TYK2 in cells was quantitatively measured using Meso Scale Discovery (MSD) technology; endogenous in cells; host or cells: OCI-LY10
Test: TYK2 MSD degradation in OCI-LY10 cells
Type: cell-based
Conditions: OCI-LY10 cells, 4 to 24 hours incubation; for DC50: read-out: TYK2 MSD OCI-LY10 Rel-DC50
In short: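 OCI-LY10 cells were treated with 9-dose 1:3 series (top 1 to 10 μM final) for 4 to 24 hours at 37° C. Lysate TYK2 quantified by MSD sandwich immunoassay; DC50 and Dmax from four-parameter inhibitor vs. response fit.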

T1 sequence (P29597 whole entry): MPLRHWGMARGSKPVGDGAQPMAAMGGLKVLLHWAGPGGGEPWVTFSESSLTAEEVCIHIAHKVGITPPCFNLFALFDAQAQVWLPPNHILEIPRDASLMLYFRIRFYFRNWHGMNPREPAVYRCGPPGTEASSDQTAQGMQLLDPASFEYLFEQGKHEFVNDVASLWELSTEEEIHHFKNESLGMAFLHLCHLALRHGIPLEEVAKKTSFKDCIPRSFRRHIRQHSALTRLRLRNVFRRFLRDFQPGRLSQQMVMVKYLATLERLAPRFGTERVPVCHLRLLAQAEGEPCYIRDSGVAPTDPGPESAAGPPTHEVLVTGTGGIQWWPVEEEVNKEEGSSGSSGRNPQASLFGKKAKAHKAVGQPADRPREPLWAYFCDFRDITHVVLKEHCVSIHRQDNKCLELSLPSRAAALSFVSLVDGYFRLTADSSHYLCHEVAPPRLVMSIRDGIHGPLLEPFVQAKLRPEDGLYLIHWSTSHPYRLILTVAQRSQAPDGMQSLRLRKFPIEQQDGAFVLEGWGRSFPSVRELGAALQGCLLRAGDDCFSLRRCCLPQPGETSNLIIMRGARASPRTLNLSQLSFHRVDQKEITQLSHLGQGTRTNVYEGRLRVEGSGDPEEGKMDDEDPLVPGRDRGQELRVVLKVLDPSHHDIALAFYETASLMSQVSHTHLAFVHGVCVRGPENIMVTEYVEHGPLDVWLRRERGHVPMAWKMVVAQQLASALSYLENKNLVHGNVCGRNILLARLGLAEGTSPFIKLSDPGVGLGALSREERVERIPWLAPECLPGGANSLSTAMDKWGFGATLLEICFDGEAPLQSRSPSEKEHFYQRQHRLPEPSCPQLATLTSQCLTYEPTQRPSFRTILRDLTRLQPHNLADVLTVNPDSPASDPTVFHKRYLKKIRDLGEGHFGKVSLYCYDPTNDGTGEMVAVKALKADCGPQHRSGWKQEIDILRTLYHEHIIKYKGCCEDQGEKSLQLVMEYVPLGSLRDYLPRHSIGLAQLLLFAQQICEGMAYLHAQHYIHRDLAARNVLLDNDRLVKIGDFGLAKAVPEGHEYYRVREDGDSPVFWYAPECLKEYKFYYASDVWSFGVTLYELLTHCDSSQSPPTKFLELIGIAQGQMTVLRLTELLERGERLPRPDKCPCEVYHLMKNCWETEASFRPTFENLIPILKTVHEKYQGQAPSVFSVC

Compound | TYK2 MSD OCI-LY10 Dmax % | DC50 [nM]
CNc1cc(N2CCc3c(-c4ncc(CN5CCC6(CCN(C(=O)c7cc(C)c(Cl)c(N8CCC(=O)NC8=O)c7)CC6)C(F)(F)C5)cc4Cl)cccc32)nn2c(C(=O)N[C@@H]3C[C@@H]3F)cnc12 [I-746] | B (B (90 to >75%)) | < 10
CNc1cc(N2CCc3c(-c4ncc(CN5CC6(CCN(C(=O)c7cc(C)c(Cl)c(N8CCC(=O)NC8=O)c7)CC6(F)F)C5)cc4Cl)cccc32)nn2c(C(=O)N[C@@H]3C[C@@H]3F)cnc12 [I-747] | B (B (90 to >75%)) | < 10
CNc1cc(N2CCc3c(CN4CCC(N5CCC6(CCN(C(=O)c7cc(C)c(OC)c(N8CCC(=O)NC8=O)c7)CC6)CC5)C(F)(F)C4)cccc32)nn2c(C(=O)N[C@@H]3C[C@@H]3F)cnc12 (some centres unmarked) [I-749] | B (B (90 to >75%)) | < 10
CNc1cc(N2CCc3c2ccc(F)c3CN2CCC(N3CCC4(CCN(C(=O)c5ccc(Cl)c(N6CCC(=O)NC6=O)c5)CC4)CC3)C(F)(F)C2)nn2c(C(=O)N[C@@H]3C[C@@H]3F)cnc12 (some centres unmarked) [I-750] | A (A (>90%)) | < 1
CNc1cc(N2CCc3c(CN4CCC(CN5CCC(N(C)c6ccc(Cl)c(N7CCC(=O)NC7=O)c6)CC5)C(F)(F)C4)cccc32)nn2c(C(=O)N[C@@H]3C[C@@H]3F)cnc12 (some centres unmarked) [I-751] | B (B (90 to >75%)) | < 10
CNc1cc(N2CCc3c(-c4ccc(CN5CC6(CCC(N(C)c7ccc(Cl)c(N8CCC(=O)NC8=O)c7)CC6)C5)cn4)cccc32)nn2c(C(=O)N[C@@H]3CC[C@H]3OC)cnc12 [I-752] | B (B (90 to >75%)) | < 10
CNc1cc(N2CCc3c(CN4CCC(N5CC(CC6CCN(C(=O)c7ccc(Cl)c(N8CCC(=O)NC8=O)c7)CC6)C5)C(F)(F)C4)cccc32)nn2c(C(=O)N[C@@H]3C[C@@H]3F)cnc12 (some centres unmarked) [I-753] | A (A (>90%)) | < 1
CNc1cc(N2CCc3c(-c4ccc(CN5CC6(CCN(C(=O)c7cc(Cl)c(C)c(N8CCC(=O)NC8=O)c7)CC6(F)F)C5)cn4)cccc32)nn2c(C(=O)N[C@@H]3CC[C@H]3OC)cnc12 [I-754] | A (A (>90%)) | < 1
CNc1cc(N2CCc3c2ccc(C)c3CN2CCC(N3CCC4(CCN(C(=O)c5ccc(Cl)c(N6CCC(=O)NC6=O)c5)CC4)CC3)C(F)(F)C2)nn2c(C(=O)N[C@@H]3C[C@@H]3F)cnc12 (some centres unmarked) [I-755] | C (C (75 to 50%)) | 10 to 100
CNc1cc(N2CCc3c(-c4ncc(CN5CC6(CCN(C(=O)c7cc(C)c(Cl)c(N8CCC(=O)NC8=O)c7)CC6(F)F)C5)cc4C)cccc32)nn2c(C(=O)N[C@@H]3C[C@@H]3F)cnc12 [I-756] | B (B (90 to >75%)) | < 10
CNc1cc(N2CCc3c(-c4ccc(CN5CCC6(CCN(C(=O)c7cc(C)c(OC)c(N8CCC(=O)NC8=O)c7)CC6)C(F)(F)C5)cn4)cccc32)nn2c(C(=O)N[C@@H]3C[C@@H]3F)cnc12 [I-757] | B (B (90 to >75%)) | < 10
CNc1cc(N2CCc3c(CN4CCC(N5CCC(N(C)c6ccc(Cl)c(N7CCC(=O)NC7=O)c6)CC5)C(F)(F)C4)cccc32)nn2c(C(=O)N[C@@H]3C[C@@H]3F)cnc12 (some centres unmarked) [I-758] | B (B (90 to >75%)) | < 10
CNc1cc(N2CCc3c(-c4cnc(CC5CC6(CCN(C(=O)c7cc(C)c(Cl)c(N8CCC(=O)NC8=O)c7)CC6)C5)cn4)cccc32)nn2c(C(=O)N[C@@H]3C[C@@H]3F)cnc12 [I-760] | B (B (90 to >75%)) | < 10
CNc1cc(N2CCc3c(CN4CCC(CN5CCN(C(=O)c6ccc(Cl)c(N7CCC(=O)NC7=O)c6)CC5)C(F)(F)C4)cccc32)nn2c(C(=O)N[C@@H]3C[C@@H]3F)cnc12 (some centres unmarked) [I-761] | B (B (90 to >75%)) | < 10
CNc1cc(N2CCc3c(-c4ncc(CN5CCC6(CCN(C(=O)c7cc(C)c(Cl)c(N8CCC(=O)NC8=O)c7)CC6)C(F)(F)C5)cc4C)cccc32)nn2c(C(=O)N[C@@H]3C[C@@H]3F)cnc12 [I-763] | B (B (90 to >75%)) | < 10
CNc1cc(N2CCc3c(CN4CCC(N5CCC6(CCN(C(=O)c7cc(Cl)c(OC)c(N8CCC(=O)NC8=O)c7)CC6)CC5)C(F)(F)C4)cccc32)nn2c(C(=O)N[C@@H]3C[C@@H]3F)cnc12 (some centres unmarked) [I-764] | B (B (90 to >75%)) | < 10
CNc1cc(N2CCc3c(CN4CCC(N5CCC6(CCN(C(=O)c7cc(N8CCC(=O)NC8=O)c(Cl)cc7C)CC6)CC5)C(F)(F)C4)cccc32)nn2c(C(=O)N[C@@H]3C[C@@H]3F)cnc12 (some centres unmarked) [I-765] | B (B (90 to >75%)) | < 10
CNc1cc(N2CCc3c(CN4CCC(CN5CCC6(CC5)CCN(C(=O)c5ccc(Cl)c(N7CCC(=O)NC7=O)c5)CC6)C(F)(F)C4)cccc32)nn2c(C(=O)N[C@@H]3C[C@@H]3F)cnc12 (some centres unmarked) [I-766] | A (A (>90%)) | < 1
CNc1cc(-c2cn(C3CCN(C4CCN(C(=O)c5ccc(Cl)c(N6CCC(=O)NC6=O)c5)CC4)CC3)c3ccccc23)nn2c(C(=O)N[C@@H]3C[C@@H]3F)cnc12 [I-767] | D (D (<50%)) | > 100

Compound | TYK2 MSD OCI-LY10 Dmax % | DC50 [nM]
CNc1cc(-c2cn(CC3CCN(C4CCN(C(=O)c5ccc(Cl)c(N6CCC(=O)NC6=O)c5)CC4)CC3)c3ccccc23)nn2c(C(=O)N[C@@H]3C[C@@H]3F)cnc12 [I-768] | D (D (<50%)) | > 100
CNc1cc(N2CCc3c(CN4CCC(N5CCC6(CCN(C(=O)c7cc(F)c(OC)c(N8CCC(=O)NC8=O)c7)CC6)CC5)C(F)(F)C4)cccc32)nn2c(C(=O)N[C@@H]3C[C@@H]3F)cnc12 (some centres unmarked) [I-769] | B (B (90 to >75%)) | < 10
CNc1cc(N2CCc3c(CN4CCC(CN5CCC(N6CCN(C(=O)c7ccc(Cl)c(N8CCC(=O)NC8=O)c7)CC6)CC5)C(F)(F)C4)cccc32)nn2c(C(=O)N[C@@H]3C[C@@H]3F)cnc12 (some centres unmarked) [I-770] | B (B (90 to >75%)) | < 10
CNc1cc(-c2cn(CC3CCN(CCC4CCN(C(=O)c5ccc(Cl)c(N6CCC(=O)NC6=O)c5)CC4)CC3)c3ccccc23)nn2c(C(=O)N[C@@H]3C[C@@H]3F)cnc12 [I-771] | B (B (90 to >75%)) | < 10
CNc1cc(-c2cn(CC3CCN(CC4CCN(C(=O)c5ccc(Cl)c(N6CCC(=O)NC6=O)c5)CC4)CC3)c3ccccc23)nn2c(C(=O)N[C@@H]3C[C@@H]3F)cnc12 [I-773] | D (D (<50%)) | > 100
CNc1cc(N2CCc3c(CN4CCC(N5CCC6(CCN(C(=O)c7cc(C)c(Cl)c(N8CCC(=O)NC8=O)c7)CC6)CC5)C(F)(F)C4)cccc32)nc2c(C(=O)N[C@@H]3C[C@@H]3F)cnn12 (some centres unmarked) [I-775] | A (A (>90%)) | < 1
CNc1cc(N2CCc3c(-c4ccc(CN5CCC6(CCN(C(=O)c7cc(F)c(OC)c(N8CCC(=O)NC8=O)c7)CC6)C(F)(F)C5)cn4)cccc32)nn2c(C(=O)N[C@@H]3C[C@@H]3F)cnc12 [I-776] | B (B (90 to >75%)) | < 10
CNc1cc(-c2cn(C3CCN(CCC4CCN(C(=O)c5ccc(Cl)c(N6CCC(=O)NC6=O)c5)CC4)CC3)c3ccccc23)nn2c(C(=O)N[C@@H]3C[C@@H]3F)cnc12 [I-779] | D (D (<50%)) | > 100
CNc1cc(N2CCc3c(CN4CCC(N5CCC(C6CCN(C(=O)c7ccc(Cl)c(N8CCC(=O)NC8=O)c7)CC6)CC5)C(F)(F)C4)cccc32)nn2c(C(=O)N[C@@H]3C[C@@H]3F)cnc12 (some centres unmarked) [I-780] | A (A (>90%)) | < 1
CNc1cc(N2CCc3c(N4CC(CN5CCC(N6CCN(C(=O)c7ccc(Cl)c(N8CCC(=O)NC8=O)c7)CC6)C(F)(F)C5)C4)cccc32)nn2c(C(=O)N[C@@H]3C[C@@H]3F)cnc12 (some centres unmarked) [I-781] | D (D (<50%)) | > 100
CNc1cc(N2CCc3c(-c4ccc(CN5CC6(CCN(C(=O)c7cc(N8CCC(=O)NC8=O)c(C)cn7)CC6)C5)cn4)cccc32)nn2c(C(=O)N[C@@H]3C[C@@H]3F)cnc12 [I-782] | A (A (>90%)) | < 1
CNc1cc(N2CCc3c(N4CC(CN5CCC6(CCN(C(=O)c7ccc(Cl)c(N8CCC(=O)NC8=O)c7)CC6)C(F)(F)C5)C4)cccc32)nn2c(C(=O)N[C@@H]3C[C@@H]3F)cnc12 [I-783] | B (B (90 to >75%)) | < 10
CNc1cc(N2CCc3c(-c4ccc(CN5CCC(N6CCC(N(C)c7ccc(Cl)c(N8CCC(=O)NC8=O)c7)CC6)C(F)(F)C5)cn4)cccc32)nn2c(C(=O)N[C@@H]3C[C@@H]3F)cnc12 (some centres unmarked) [I-784] | C (C (75 to 50%)) | 10 to 100
CNc1cc(N2CCc3c(N4CC(CN5CCC(N6CCC7(CCN(C(=O)c8ccc(Cl)c(N9CCC(=O)NC9=O)c8)CC7)CC6)C(F)(F)C5)C4)cccc32)nn2c(C(=O)N[C@@H]3C[C@@H]3F)cnc12 (some centres unmarked) [I-785] | B (B (90 to >75%)) | < 10
CNc1cc(N2CCc3c(N4CC(CN5CCN(C6CCN(C(=O)c7ccc(Cl)c(N8CCC(=O)NC8=O)c7)CC6)CC5)C4)cccc32)nn2c(C(=O)N[C@@H]3C[C@@H]3F)cnc12 [I-787] | D (D (<50%)) | > 100
CNc1cc(-c2cn(C3CCN(CC4CCN(C(=O)c5ccc(Cl)c(N6CCC(=O)NC6=O)c5)CC4)CC3)c3ccccc23)nn2c(C(=O)N[C@@H]3C[C@@H]3F)cnc12 [I-789] | D (D (<50%)) | > 100
CNc1cc(N2CCc3c(CN4CCC(N5CC(C6CCN(C(=O)c7ccc(Cl)c(N8CCC(=O)NC8=O)c7)CC6)C5)C(F)(F)C4)cccc32)nn2c(C(=O)N[C@@H]3C[C@@H]3F)cnc12 (some centres unmarked) [I-791] | A (A (>90%)) | < 1
CNc1cc(N2CCc3c(-c4ccc(CN5CCC6(CCN(C(=O)c7cc(Cl)c(F)c(N8CCC(=O)NC8=O)c7)CC6)C(F)(F)C5)cn4)cccc32)nn2c(C(=O)N[C@@H]3C[C@@H]3F)cnc12 [I-792] | B (B (90 to >75%)) | < 10
